Measurements from PubChem BioAssay (NCI).
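1) Cells in 96-well plates. 2) Compound, 48 h, 5 concentrations. 3) Linear interpolation between surrounding doses. 4) Unreached endpoint = highest concentration. TGI denotes the concentration required for complete inhibition of growth.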

What was measured:
Test in all cases: NCI-60 cell line screen, 48 h
CAKI-1 renal = system: CAKI-1 renal
ACHN renal = system: ACHN renal
DMS 114 small cell lung = system: DMS 114 small cell lung
SF-539 CNS = system: SF-539 CNS
UO-31 renal = system: UO-31 renal
HOP-62 NSCLC = system: HOP-62 NSCLC
SK-MEL-2 melanoma = system: SK-MEL-2 melanoma
HOP-92 NSCLC = system: HOP-92 NSCLC
UACC-62 melanoma = system: UACC-62 melanoma
DLD-1 colon = system: DLD-1 colon
RPMI-8226 leukemia = system: RPMI-8226 leukemia
HL-60(TB) leukemia = system: HL-60(TB) leukemia
LXFL 529 NSCLC = system: LXFL 529 NSCLC
M14 melanoma = system: M14 melanoma
SK-OV-3 ovarian = system: SK-OV-3 ovarian
EKVX NSCLC = system: EKVX NSCLC
NCI-H23 lung = system: NCI-H23 lung
OVCAR-3 ovarian = system: OVCAR-3 ovarian
UACC-257 melanoma = system: UACC-257 melanoma
HCT-15 colon = system: HCT-15 colon
U251 CNS = system: U251 CNS
SF-295 CNS = system: SF-295 CNS
NCI-H226 lung = system: NCI-H226 lung
SN12C renal = system: SN12C renal
MALME-3M melanoma = system: MALME-3M melanoma
SW-620 colon = system: SW-620 colon
KM20L2 colon = system: KM20L2 colon
CCRF-CEM leukemia = system: CCRF-CEM leukemia
OVCAR-5 ovarian = system: OVCAR-5 ovarian
NCI-H522 lung = system: NCI-H522 lung
IGROV1 ovarian = system: IGROV1 ovarian
HT29 colon = system: HT29 colon
COLO 205 colon = system: COLO 205 colon
786-0 renal = system: 786-0 renal
A549 NSCLC = system: A549 NSCLC
SNB-75 CNS = system: SNB-75 CNS
SF-268 CNS = system: SF-268 CNS
LOX IMVI melanoma = system: LOX IMVI melanoma
HCT-116 colon = system: HCT-116 colon
SK-MEL-5 melanoma = system: SK-MEL-5 melanoma
A498 renal = system: A498 renal
HCC-2998 colon = system: HCC-2998 colon
DMS 273 small cell lung = system: DMS 273 small cell lung
OVCAR-4 ovarian = system: OVCAR-4 ovarian
SNB-19 CNS = system: SNB-19 CNS
OVCAR-8 ovarian = system: OVCAR-8 ovarian
M19-MEL melanoma = system: M19-MEL melanoma
SNB-78 CNS = system: SNB-78 CNS
SK-MEL-28 melanoma = system: SK-MEL-28 melanoma
RXF 393 renal = system: RXF 393 renal
K-562 leukemia = system: K-562 leukemia
TK-10 renal = system: TK-10 renal
KM12 colon = system: KM12 colon
SR leukemia = system: SR leukemia
MOLT-4 leukemia = system: MOLT-4 leukemia
NCI-H460 lung = system: NCI-H460 lung
HOP-18 NSCLC = system: HOP-18 NSCLC
XF 498 CNS = system: XF 498 CNS

CCOc1ccccc1N1C(=O)C(=O)C(c2nc3ccccc3o2)/C(=N\N)C1=O (centres undefined)
TGI (CAKI-1 renal): > 100 µM
TGI (ACHN renal): > 100 µM
TGI (DMS 114 small cell lung): > 100 µM
TGI (SF-539 CNS): > 100 µM
TGI (UO-31 renal): 91 µM
TGI (HOP-62 NSCLC): > 100 µM
TGI (SK-MEL-2 melanoma): > 100 µM
TGI (HOP-92 NSCLC): > 100 µM
TGI (UACC-62 melanoma): > 100 µM
TGI (DLD-1 colon): > 100 µM
TGI (RPMI-8226 leukemia): > 100 µM
TGI (HL-60(TB) leukemia): > 100 µM
TGI (LXFL 529 NSCLC): > 100 µM
TGI (M14 melanoma): > 100 µM
TGI (SK-OV-3 ovarian): > 100 µM
TGI (EKVX NSCLC): > 100 µM
TGI (NCI-H23 lung): > 100 µM
TGI (OVCAR-3 ovarian): > 100 µM
TGI (UACC-257 melanoma): > 100 µM
TGI (HCT-15 colon): > 100 µM
TGI (U251 CNS): > 100 µM
TGI (SF-295 CNS): > 100 µM
TGI (NCI-H226 lung): > 100 µM
TGI (SN12C renal): > 100 µM
TGI (MALME-3M melanoma): > 100 µM
TGI (SW-620 colon): > 100 µM
TGI (KM20L2 colon): > 100 µM
TGI (CCRF-CEM leukemia): > 100 µM
TGI (OVCAR-5 ovarian): > 100 µM
TGI (NCI-H522 lung): > 100 µM
TGI (IGROV1 ovarian): > 100 µM
TGI (HT29 colon): > 100 µM
TGI (COLO 205 colon): > 100 µM
TGI (786-0 renal): > 100 µM
TGI (A549 NSCLC): > 100 µM
TGI (SNB-75 CNS): > 100 µM
TGI (SF-268 CNS): > 100 µM
TGI (LOX IMVI melanoma): > 100 µM
TGI (HCT-116 colon): > 100 µM
TGI (SK-MEL-5 melanoma): > 100 µM
TGI (A498 renal): > 100 µM
TGI (HCC-2998 colon): > 100 µM
TGI (DMS 273 small cell lung): > 100 µM
TGI (OVCAR-4 ovarian): > 100 µM
TGI (SNB-19 CNS): > 100 µM
TGI (OVCAR-8 ovarian): > 100 µM
TGI (M19-MEL melanoma): > 100 µM
TGI (SNB-78 CNS): > 100 µM
TGI (SK-MEL-28 melanoma): > 100 µM
TGI (RXF 393 renal): > 100 µM
TGI (K-562 leukemia): > 100 µM
TGI (TK-10 renal): > 100 µM
TGI (KM12 colon): > 100 µM

COc1cc2cc3c4c(cc(OC)c(OC)c4c2cc1OC)CCN3C(=O)N(C)C
TGI (CAKI-1 renal): > 100 µM
TGI (ACHN renal): > 100 µM
TGI (DMS 114 small cell lung): > 100 µM
TGI (SF-539 CNS): > 100 µM
TGI (UO-31 renal): > 100 µM
TGI (HOP-62 NSCLC): > 100 µM
TGI (SK-MEL-2 melanoma): > 100 µM
TGI (HOP-92 NSCLC): > 100 µM
TGI (UACC-62 melanoma): > 100 µM
TGI (DLD-1 colon): > 100 µM
TGI (RPMI-8226 leukemia): > 100 µM
TGI (HL-60(TB) leukemia): > 100 µM
TGI (LXFL 529 NSCLC): > 100 µM
TGI (M14 melanoma): > 10 µM
TGI (SK-OV-3 ovarian): > 100 µM
TGI (EKVX NSCLC): > 100 µM
TGI (NCI-H23 lung): > 10 µM
TGI (OVCAR-3 ovarian): > 100 µM
TGI (UACC-257 melanoma): > 100 µM
TGI (HCT-15 colon): > 100 µM
TGI (U251 CNS): > 100 µM
TGI (SF-295 CNS): > 100 µM
TGI (SR leukemia): > 100 µM
TGI (NCI-H226 lung): > 100 µM
TGI (SN12C renal): > 100 µM
TGI (MALME-3M melanoma): > 100 µM
TGI (MOLT-4 leukemia): > 100 µM
TGI (SW-620 colon): > 100 µM
TGI (KM20L2 colon): > 100 µM
TGI (CCRF-CEM leukemia): > 100 µM
TGI (OVCAR-5 ovarian): > 100 µM
TGI (NCI-H522 lung): > 100 µM
TGI (IGROV1 ovarian): > 100 µM
TGI (HT29 colon): > 100 µM
TGI (COLO 205 colon): > 100 µM
TGI (786-0 renal): > 100 µM
TGI (A549 NSCLC): > 100 µM
TGI (SNB-75 CNS): > 100 µM
TGI (SF-268 CNS): > 100 µM
TGI (LOX IMVI melanoma): > 100 µM
TGI (HCT-116 colon): > 100 µM
TGI (SK-MEL-5 melanoma): > 100 µM
TGI (A498 renal): > 100 µM
TGI (HCC-2998 colon): > 100 µM
TGI (DMS 273 small cell lung): > 100 µM
TGI (OVCAR-4 ovarian): > 100 µM
TGI (SNB-19 CNS): > 100 µM
TGI (OVCAR-8 ovarian): > 100 µM
TGI (M19-MEL melanoma): > 100 µM
TGI (SNB-78 CNS): > 100 µM
TGI (SK-MEL-28 melanoma): > 100 µM
TGI (RXF 393 renal): > 100 µM
TGI (K-562 leukemia): > 100 µM
TGI (NCI-H460 lung): > 100 µM
TGI (TK-10 renal): > 10 µM
TGI (KM12 colon): > 100 µM

COc1ccc(-c2nnc(-c3c(C)n(C)n(-c4ccccc4)c3=O)o2)cc1
TGI (ACHN renal): > 100 µM
TGI (HOP-18 NSCLC): > 100 µM
TGI (DMS 114 small cell lung): > 100 µM
TGI (SF-539 CNS): > 100 µM
TGI (UO-31 renal): > 100 µM
TGI (HOP-62 NSCLC): > 100 µM
TGI (SK-MEL-2 melanoma): > 100 µM
TGI (HOP-92 NSCLC): > 100 µM
TGI (UACC-62 melanoma): > 100 µM
TGI (DLD-1 colon): > 100 µM
TGI (RPMI-8226 leukemia): > 100 µM
TGI (HL-60(TB) leukemia): > 100 µM
TGI (LXFL 529 NSCLC): > 100 µM
TGI (M14 melanoma): > 100 µM
TGI (SK-OV-3 ovarian): > 100 µM
TGI (EKVX NSCLC): > 100 µM
TGI (NCI-H23 lung): > 100 µM
TGI (OVCAR-3 ovarian): > 100 µM
TGI (UACC-257 melanoma): > 100 µM
TGI (HCT-15 colon): > 100 µM
TGI (U251 CNS): > 100 µM
TGI (SF-295 CNS): > 100 µM
TGI (SR leukemia): > 100 µM
TGI (NCI-H226 lung): > 100 µM
TGI (SN12C renal): > 100 µM
TGI (XF 498 CNS): > 100 µM
TGI (MALME-3M melanoma): > 100 µM
TGI (MOLT-4 leukemia): > 100 µM
TGI (SW-620 colon): > 100 µM
TGI (KM20L2 colon): > 100 µM
TGI (CCRF-CEM leukemia): > 100 µM
TGI (NCI-H522 lung): > 100 µM
TGI (IGROV1 ovarian): > 100 µM
TGI (HT29 colon): > 100 µM
TGI (COLO 205 colon): > 100 µM
TGI (786-0 renal): > 100 µM
TGI (A549 NSCLC): > 100 µM
TGI (SNB-75 CNS): > 100 µM
TGI (SF-268 CNS): > 100 µM
TGI (LOX IMVI melanoma): > 100 µM
TGI (HCT-116 colon): > 100 µM
TGI (A498 renal): > 100 µM
TGI (HCC-2998 colon): > 100 µM
TGI (DMS 273 small cell lung): > 100 µM
TGI (OVCAR-4 ovarian): > 100 µM
TGI (SNB-19 CNS): > 100 µM
TGI (OVCAR-8 ovarian): > 100 µM
TGI (M19-MEL melanoma): > 100 µM
TGI (SNB-78 CNS): > 100 µM
TGI (SK-MEL-28 melanoma): > 100 µM
TGI (RXF 393 renal): > 100 µM
TGI (K-562 leukemia): > 100 µM
TGI (NCI-H460 lung): > 100 µM
TGI (TK-10 renal): > 100 µM
TGI (KM12 colon): > 100 µM
